± gives the standard deviation of the averaged measurements.
Legend:
Assay in all cases: growth (OD600) normalised to reference wells; higher = more growth / less inhibition
GPI15_HIP = system: GPI15_HIP
Procedure: (§1)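 S. cerevisiae strains (wild type, SPT14 point-mutant knock-ins, HIP heterozygous and HOP homozygous deletion strains) were grown in rich medium in 96-well plates with 12-point serial dilutions of jawsamycin or clotrimazole (DMSO normalised to 2%). Growth was read as OD600 and normalised within each dilution series (NormOD, % growth). Wells set exactly to 100 are normalisation references and are left out.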

GPI1_HIP = system: GPI1_HIP
Procedure: as §1

GPI2_HIP = system: GPI2_HIP
Procedure: as §1

HAC1_HOP = system: HAC1_HOP
Procedure: as §1

HO_HIP = system: HO_HIP
Procedure: as §1

HO_HOP = system: HO_HOP
Procedure: as §1

IRE1_HOP = system: IRE1_HOP
Procedure: as §1

JIP3_HOP = system: JIP3_HOP
Procedure: as §1

MID2_HOP = system: MID2_HOP
Procedure: as §1

MUD2_HOP = system: MUD2_HOP
Procedure: as §1

RLM1_HOP = system: RLM1_HOP
Procedure: as §1

SPT14(H106Y) = system: SPT14(H106Y)
Procedure: as §1

SPT14(T114A) = system: SPT14(T114A)
Procedure: as §1

SPT14(V76F) = system: SPT14(V76F)
Procedure: as §1

SPT14(WT) = system: SPT14(WT)
Procedure: as §1

SPT14_HIP = system: SPT14_HIP
Procedure: as §1

C[C@@H]1C[C@H]1/C=C/[C@@H]1C[C@H]1[C@@H]1C[C@H]1[C@@H]1C[C@H]1[C@@H]1C[C@H]1/C=C/C=C/C(=O)NC[C@H]1O[C@@H](N2CCC(=O)NC2=O)[C@H](O)[C@@H]1O [Jawsamycin]
Details	growth [%]
GPI1_HIP, 0.125900179 µM	95.1 ± 5
GPI1_HIP, 0.26439 µM	65.4 ± 2
GPI1_HIP, 0.55522 µM	3.38 ± 0.54
GPI1_HIP, 1.16596 µM	0.172 ± 0.55
GPI1_HIP, 2.44852 µM	-0.0309 ± 0.13
GPI1_HIP, 5.14189 µM	0.123 ± 0.43
GPI1_HIP, 10.79796998 µM	-0.0696 ± 0.33
GPI1_HIP, 22.6757 µM	-0.0919 ± 0.24
GPI1_HIP, 47.619 µM	0.953 ± 0.27
GPI1_HIP, 100 µM	4.06 ± 0.43
GPI2_HIP, 0.125900179 µM	102 ± 12
GPI2_HIP, 0.26439 µM	78.2 ± 6
GPI2_HIP, 0.55522 µM	12.1 ± 12
GPI2_HIP, 1.16596 µM	0.957 ± 1.3
GPI2_HIP, 2.44852 µM	-0.153 ± 0.52
GPI2_HIP, 5.14189 µM	-0.208 ± 0.26
GPI2_HIP, 10.79796998 µM	-0.242 ± 0.21
GPI2_HIP, 22.6757 µM	0.183 ± 0.11
GPI2_HIP, 47.619 µM	1.43 ± 0.45
GPI2_HIP, 100 µM	3.73 ± 0.85
GPI15_HIP, 0.125900179 µM	96 ± 4.2
GPI15_HIP, 0.26439 µM	83.9 ± 4.3
GPI15_HIP, 0.55522 µM	14.5 ± 1.1
GPI15_HIP, 1.16596 µM	0.707 ± 1
GPI15_HIP, 2.44852 µM	-0.181 ± 0.52
GPI15_HIP, 5.14189 µM	-0.594 ± 0.33
GPI15_HIP, 10.79796998 µM	-0.329 ± 0.29
GPI15_HIP, 22.6757 µM	-0.355 ± 0.18
GPI15_HIP, 47.619 µM	2.02 ± 0.8
GPI15_HIP, 100 µM	3.35 ± 1
HAC1_HOP, 0.12590018 µM	72.1 ± 4.1
HAC1_HOP, 0.26439 µM	23.7 ± 11
HAC1_HOP, 0.55522 µM	3.92 ± 1.4
HAC1_HOP, 1.16596156 µM	2.26 ± 2.9
HAC1_HOP, 2.44852 µM	0.418 ± 0.45
HAC1_HOP, 5.14189 µM	0.344 ± 0.077
HAC1_HOP, 10.798 µM	1.36 ± 0.26
HO_HIP, 0.125900179 µM	100.4 ± 0.2
HO_HIP, 0.26439 µM	96.5 ± 10
HO_HIP, 0.55522 µM	29.9
HO_HIP, 1.16596 µM	5.52 ± 5.4
HO_HIP, 2.44852 µM	1.29 ± 1.6
HO_HIP, 5.14189 µM	0.138 ± 0.75
HO_HIP, 10.79796998 µM	-0.0442 ± 0.35
HO_HIP, 22.6757 µM	0.182 ± 0.18
HO_HIP, 47.619 µM	5.56 ± 1.6
HO_HIP, 100 µM	11.6 ± 7.3
HO_HOP, 0.12590018 µM	97 ± 3.7
HO_HOP, 0.26439 µM	84 ± 8.2
HO_HOP, 0.55522 µM	56 ± 15
HO_HOP, 1.16596156 µM	15.1 ± 4.4
HO_HOP, 2.44852 µM	4.54 ± 0.77
HO_HOP, 5.14189 µM	1.38 ± 0.34
HO_HOP, 10.798 µM	8.54 ± 3.9
IRE1_HOP, 0.12590018 µM	70.1 ± 3.1
IRE1_HOP, 0.26439 µM	14.2 ± 8.8
IRE1_HOP, 0.55522 µM	2.66 ± 1.7
IRE1_HOP, 1.16596156 µM	-0.118 ± 0.44
IRE1_HOP, 2.44852 µM	-0.241 ± 0.45
IRE1_HOP, 5.14189 µM	-0.264 ± 0.47
IRE1_HOP, 10.798 µM	0.8 ± 0.17
JIP3_HOP, 0.12590018 µM	64.5 ± 38
JIP3_HOP, 0.26439 µM	-0.444 ± 0.1
JIP3_HOP, 0.55522 µM	-0.584 ± 0.029
JIP3_HOP, 1.16596156 µM	-0.756 ± 0.065
JIP3_HOP, 2.44852 µM	-0.689 ± 0.054
JIP3_HOP, 5.14189 µM	-0.655 ± 0.015
JIP3_HOP, 10.798 µM	0.0162 ± 0.019
MID2_HOP, 0.12590018 µM	89.4 ± 4
MID2_HOP, 0.26439 µM	0.809 ± 2.5
MID2_HOP, 0.55522 µM	-0.646 ± 0.35
MID2_HOP, 1.16596156 µM	-0.903 ± 0.097
MID2_HOP, 2.44852 µM	-0.918 ± 0.13
MID2_HOP, 5.14189 µM	-0.848 ± 0.081
MID2_HOP, 10.798 µM	-0.546 ± 0.14
MUD2_HOP, 0.12590018 µM	33.2 ± 14
MUD2_HOP, 0.26439 µM	0.873 ± 1.4
MUD2_HOP, 0.55522 µM	-1.12 ± 0.056
MUD2_HOP, 1.16596156 µM	-1.19 ± 0.32
MUD2_HOP, 2.44852 µM	-0.498 ± 1.1
MUD2_HOP, 5.14189 µM	-0.906 ± 0.31
MUD2_HOP, 10.798 µM	-0.454 ± 0.53
RLM1_HOP, 0.12590018 µM	88 ± 7.7
RLM1_HOP, 0.26439 µM	2.22 ± 3
RLM1_HOP, 0.55522 µM	-0.308 ± 0.17
RLM1_HOP, 1.16596156 µM	-0.482 ± 0.12
RLM1_HOP, 2.44852 µM	-0.568 ± 0.1
RLM1_HOP, 5.14189 µM	-0.545 ± 0.051
RLM1_HOP, 10.798 µM	-0.0157 ± 0.11
SPT14(H106Y), 0.0599525 µM	99.9 ± 7.8
SPT14(H106Y), 0.125900179 µM	99.6 ± 6.1
SPT14(H106Y), 0.26439 µM	96 ± 2.1
SPT14(H106Y), 0.55522 µM	91.6 ± 4.1
SPT14(H106Y), 1.16596 µM	65.8 ± 17
SPT14(H106Y), 2.44852 µM	1.98 ± 7.4
SPT14(H106Y), 5.14189 µM	-4.83 ± 0.1
SPT14(H106Y), 10.79796998 µM	-5.01 ± 0.39
SPT14(H106Y), 22.6757 µM	-5 ± 0.36
SPT14(H106Y), 47.619 µM	-2.96 ± 0.32
SPT14(H106Y), 100 µM	0.649 ± 1.2
SPT14(T114A), 0.0599525 µM	96.9 ± 3.4
SPT14(T114A), 0.125900179 µM	97.4 ± 2.2
SPT14(T114A), 0.26439 µM	92.3 ± 1.1
SPT14(T114A), 0.55522 µM	86.4 ± 6.1
SPT14(T114A), 1.16596 µM	61 ± 6.8
SPT14(T114A), 2.44852 µM	-0.886 ± 0.7
SPT14(T114A), 5.14189 µM	-4.03 ± 0.75
SPT14(T114A), 10.79796998 µM	-3.95 ± 0.067
SPT14(T114A), 22.6757 µM	-3.63 ± 0.075
SPT14(T114A), 47.619 µM	-2.26 ± 0.22
SPT14(T114A), 100 µM	0.0855 ± 0.21
SPT14(V76F), 0.1259 µM	101.9 ± 0.58
SPT14(V76F), 0.26439 µM	103 ± 3.4
SPT14(V76F), 0.55522 µM	104 ± 4.9
SPT14(V76F), 1.16596 µM	96.4 ± 2.8
SPT14(V76F), 2.44852 µM	100 ± 9.3
SPT14(V76F), 5.14189 µM	99 ± 1.6
SPT14(V76F), 10.798 µM	102 ± 3.1
SPT14(V76F), 22.6757 µM	102 ± 4
SPT14(V76F), 100 µM	74.6 ± 10
SPT14(WT), 0.0599525 µM	80.5 ± 8.5
SPT14(WT), 0.125900179 µM	17.9 ± 28
SPT14(WT), 0.26439 µM	-3.32 ± 2.1
SPT14(WT), 0.55522 µM	-3.82 ± 2.3
SPT14(WT), 1.16596 µM	-3.97 ± 2.3
SPT14(WT), 2.44852 µM	-3.91 ± 2.2
SPT14(WT), 5.14189 µM	-3.92 ± 2.3
SPT14(WT), 10.79796998 µM	-3.59 ± 2.6
SPT14(WT), 22.6757 µM	-3.29 ± 2.7
SPT14(WT), 47.619 µM	-1.96 ± 2.4
SPT14(WT), 100 µM	-0.804 ± 1.2
SPT14_HIP, 0.125900179 µM	108 ± 16
SPT14_HIP, 0.26439 µM	89.878 ± 0.04
SPT14_HIP, 0.55522 µM	21.9
SPT14_HIP, 1.16596 µM	2.72 ± 2.1
SPT14_HIP, 2.44852 µM	0.0973 ± 0.67
SPT14_HIP, 5.14189 µM	-0.496 ± 0.4
SPT14_HIP, 10.79796998 µM	-0.548 ± 0.2
SPT14_HIP, 22.6757 µM	0.0487 ± 0.98
SPT14_HIP, 47.619 µM	2.81 ± 0.48
SPT14_HIP, 100 µM	5.21 ± 0.21
